Assay results as given in US20250127766A1, “METHODS AND COMPOSITIONS FOR TREATING CDKL5 DISORDER USING MONOAMINE OXIDASE INHIBITORS” (priority 2023, published 2025).

What was measured:
[1] = tested on: CDKL5-deficient organoids; experiment: Network activity of organoids derived from patient iPSCs; format: cell-based, human; conditions: CDKL5-deficient organoids treated with harmine
Procedure: Another set of experiments was conducted using organoids derived from patient-induced pluripotent stem cells (iPSCs). Organoids are three-dimensional structures created from stem cells that closely resemble specific organs or tissues in terms of cellular composition, architecture, and function. These structures are widely used in biomedical research because they replicate the complexity of real organs, including their multiple cell types, tissue-specific structures, and the functions of the organ being modeled. In this study, organoids were generated to mimic the neuronal network of patients with CDKL5 deficiency disorder (CDD), providing a model system to explore the underlying mechanisms of the disorder and test potential therapeutic approaches.
Increased network excitability refers to an overactive state where neurons fire excessively, a characteristic associated with the seizure activity observed in CDD patients. Altered synchrony in the neuronal network reflects disrupted communication between neurons, contributing to cognitive impairments.

DYRK1A = molecular target: T1, DYRK1A (Homo sapiens, UniProt Q13627); experiment: DYRK1A activity in harmine-treated organoids; format: cell-based
T1 construct: endogenous in cells; host or cells: CDKL5-deficient organoids
Text: DYRK1A is a kinase that adds phosphate groups to proteins, thereby regulating their function. In CDKL5 deficiency, the lack of CDKL5-mediated regulation leads to overactivation of DYRK1A, resulting in dysregulated synaptic signaling and impaired neuronal communication. Harmine, by selectively inhibiting DYRK1A, restores the phosphorylation balance at the synapse, preventing over-phosphorylation of critical synaptic proteins. This modulation of synaptic signaling pathways by harmine contributes to the restoration of neuronal connectivity and the normalization of network activity in the treated organoids.

microglial cells = experiment: Microglial activity
Text: This activation is associated with the release of proinflammatory cytokines, which promote neuroinflammatory processes.

CDKL5 knockout mice = experiment: In vivo studies in CDKL5 knockout mice: synaptic transmission and neuronal connectivity
Procedure: This dosing regimen may serve as a reference point for establishing human doses. Extrapolating from these animal models, an initial dosing range for children of 1 to 2 mg/kg per day. This range can be adjusted depending on the individual's size and response, with a narrower range of 1.5 to 2 mg/kg per day for more precise dosing or even tighter to 1.75 to 2 mg/kg per day in specific cases. For broader clinical flexibility, a starting range of 0.5 to 3 mg/kg per day might be considered for pediatric populations, with adjustments based on individual tolerance and therapeutic outcomes.
In in vivo studies, animal models of neurodevelopmental disorders, including CDKL5 knockout mice, have been treated with liquiritin to assess its impact on synaptic transmission and neuronal connectivity.

GABA receptor = conditions: in vitro; cited from earlier work
[2] = tested on: proinflammatory cytokines and chemokines; experiment: Production and release of proinflammatory cytokines and chemokines
EB2 phosphorylation = EB2 phosphorylation in CDKL5 knockout (KO) mouse model; format: in vivo; conditions: knockout (KO) male and Het female mice; compared with vehicle (drinking water)
Procedure: In this context, EB2 phosphorylation acts as a functional molecular readout for the disease-modifying potential of small molecules, such as monoamine oxidase inhibitors (MAO-Is). When studying the efficacy of potential therapies for CDD, the measurement of EB2 phosphorylation levels can provide insight into whether the treatment is capable of compensating for the dysfunctional CDKL5 protein.
To evaluate the impact of MAO-Is on EB2 phosphorylation, an in vivo study was conducted using a well-established CDKL5 knockout (KO) mouse model, specifically the B6.129(FVB)-Cdk15tm1.1Joez/J strain from Jackson Laboratories. […] These mice provide a relevant model for testing how pharmacological agents such as MAO-Is can modulate neuronal activity and potentially restore normal function in the absence of CDKL5.
The increase in EB2 phosphorylation in these models provides compelling evidence that MAO-Is offer a disease-modifying therapeutic approach for patients with CDKL5 deficiency disorder, by targeting key molecular pathways involved in synaptic transmission and brain development.

MAO-B = molecular target: T2, MAO-B (Homo sapiens, UniProt P27338); experiment: MAO-B inhibitory activity; format: biochemical
T2 sequence (P27338 1-520): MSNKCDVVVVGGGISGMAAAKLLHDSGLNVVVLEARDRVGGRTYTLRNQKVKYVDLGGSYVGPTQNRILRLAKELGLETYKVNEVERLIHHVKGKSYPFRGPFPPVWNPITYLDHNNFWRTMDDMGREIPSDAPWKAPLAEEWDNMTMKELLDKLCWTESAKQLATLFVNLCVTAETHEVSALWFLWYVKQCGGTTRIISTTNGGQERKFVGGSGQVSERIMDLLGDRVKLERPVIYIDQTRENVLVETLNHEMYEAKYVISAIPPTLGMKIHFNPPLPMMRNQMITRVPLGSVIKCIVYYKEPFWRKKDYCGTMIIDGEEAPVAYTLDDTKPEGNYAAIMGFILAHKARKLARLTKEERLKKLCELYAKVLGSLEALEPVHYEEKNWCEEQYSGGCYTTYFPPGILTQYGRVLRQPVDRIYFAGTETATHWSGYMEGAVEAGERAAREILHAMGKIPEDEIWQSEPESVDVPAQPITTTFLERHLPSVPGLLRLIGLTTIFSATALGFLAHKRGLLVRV
Text: Though its MAO-B inhibitory activity is not as potent as that of other compounds such as safinamide, its ability to mildly modulate neurotransmitter levels, particularly dopamine and serotonin, may be beneficial in improving synaptic communication in CDD. In addition to its interaction with the monoamine pathways, liquiritin's anti-inflammatory properties may aid in reducing the neuroinflammation often observed in CDKL5-deficient patients. By targeting both neurotransmitter regulation and inflammatory processes, liquiritin offers a dual mechanism that may be effective in restoring synaptic balance.

[3] = tested on: oxidative damage of neurons; conditions: cited from earlier work
[4] = tested on: seizures in animal models; conditions: cited from earlier work

## COc1ccc2c(c1)[nH]c1c(C)nccc12 [harmine]
[1]
  burst firing patterns: normalized the burst firing patterns
  network excitability: reduced network excitability
  neuronal synchrony: improved neuronal synchrony
DYRK1A
  DYRK1A activity: modulation of DYRK1A activity
Microglial cells
  microglial activity (overactivation): reducing their overactivation
CDKL5 knockout mice; 30 mg/kg intraperitoneally, 5 days on, 2 days off, another 5-day cycle
  efficacy of the dosing regimen: has shown efficacy
CDKL5 knockout mice; CDKL5 knockout mice
  neurological outcomes: improved neurological outcomes
  synaptic transmission and neuronal connectivity: significant improvements in synaptic transmission and neuronal connectivity
GABA receptor
  GABA receptor activity: increases GABA receptor activity
[2]
  production and release of proinflammatory cytokines and chemokines: inhibits the production and release of proinflammatory cytokines and chemokines

## O=C1C[C@@H](c2ccc(O[C@@H]3O[C@H](CO)[C@@H](O)[C@H](O)[C@H]3O)cc2)Oc2cc(O)ccc21 [liquiritin]
EB2 phosphorylation
  EB2 phosphorylation levels: effective in increasing EB2 phosphorylation levels
CDKL5 knockout mice; animal models including CDKL5 knockout mice
  synaptic function: moderate improvements in synaptic function
MAO-B
  MAO-B inhibitory activity: weak MAO-B inhibitor
[3]
  antioxidant activity: demonstrated antioxidant activity

## C[C@H](NCc1ccc(OCc2cccc(F)c2)cc1)C(N)=O [safinamide]
[4]
  anticonvulsant properties: suppress seizures and provide neuroprotective effects
